Consider one compound from patent US20240261302A1, “METHODS OF TREATING NEURODEGENERATIVE DISEASES OR CONDITIONS” (FloraScience Inc., priority 2023, published 2024).

The subject of experiment [1] is HT22 cells. As to the kind of experiment: Cellular Lipid Peroxidation Measurement (C11-BODIPY). Type of experiment: cell-based, mouse. As to the method: Lipid Peroxidation MeasurementsHT22 cells were seeded onto 96-well black walled plates at a density of 3,000 cells/well in DMEM supplemented with 10% FBS and 1% antibiotics. After the desired treatments, cells were labeled with 2.5 μM C11-BODIPY 581/591 (oxidized form Ex/Em=488/520 nm) at 37° C. for 2 hr. Experiments were performed according to the manufacturer's instructions. Fluorescence was measured on a SpectraMax M5 microplate reader. Data were normalized for total protein/well. Each condition was analyzed in twelve wells per independent experiment (n=12). Results were presented as the percentage of the controls with vehicle alone. Results were verified by live-cell imaging under a fluorescence microscope.

Experiment [2] in a line: Trolox Equivalent Antioxidant Capacity (TEAC) Assay. Format: biochemical. The following applies: 5 to 10 μM, compared to Trolox at 5 μM. As to the method: Trolox Equivalent Antioxidant Capacity (TEAC) Assay. Briefly, an aqueous 2,2′-azino-bis(3-ethylbenzothiazoline-6-sulfonic acid) (ABTS) solution (7 mM) was treated with potassium persulfate (K2S2O8) (2.5 mM) overnight at room temperature in the dark and diluted in water to an OD value of 0.7 at 734 nm. 190 μL of the diluted ABTS solution was added to a 96-well plate containing 10 μL of test compounds or Trolox at the desired concentrations. The plate was vigorously mixed and incubated for 4 min at room temperature in the dark. Optical absorbance was measured at 734 nm on a SpectraMax M5 microplate reader. The decrease in absorbance of the ABTS radical cation indicates the presence of antioxidants. Samples were analyzed in eight wells per independent experiment (n=8). The TEAC values of each sample were presented as the percentage of the standard Trolox at 5 μM.

Experiment [3] relates to HT22 cells. Put plainly: Immunoblotting (Western blots) of protein levels. Type of experiment: cell-based, mouse. Here is the method: Cell Protein Extraction. HT22 cells were seeded onto 10 cm dishes at a density of 400,000 cells/dish in DMEM supplemented with 10% FBS and 1% antibiotics, and then exposed to the desired treatments. For total protein extracts, HT22 cells were washed with ice-cold phosphate buffered saline (PBS) and lysed with cell extraction buffer containing 10 mM Tris, pH 7.4, 100 mM NaCl, 1 mM EDTA, 1 mM EGTA, 1 mM NaF, 20 mM Na4P2O7, 2 mM Na3VO4, 1% Triton X-100, 10% glycerol, 0.1% sodium dodecyl sulfate (SDS), 0.5% sodium deoxycholate, a protease inhibitor cocktail, and a phosphatase inhibitor cocktail followed by centrifugation (14000 g) for 30 min at 4° C. For nuclear extracts, HT22 cells were washed with ice-cold PBS, incubated with a nuclear fractionation buffer containing 10 mM HEPES, pH 7.9, 10 mM KCl, 0.1 mM EDTA, 0.1 mM EGTA, 1 mM DTT, 1 mM Na3VO4, a protease inhibitor cocktail, and a phosphatase inhibitor cocktail on ice for 15 min, then Nonidet P-40 at a final concentration of 0.6% was added to the buffer. Cells were vortexed, and the nuclei pelleted by centrifugation (1000 g) for 10 min at 4° C. Nuclear proteins were extracted by sonication of the nuclear pellet in nuclear fractionation buffer followed by centrifugation (14000 g) for 30 min at 4° C. The resulting supernatants of total/nuclear protein extracts were stored at −80° C. until analysis. Concentrations of the harvested proteins were determined by the BCA protein assay.
Immunoblotting. Western blots were carried out as follows. Laemmli sample buffer with 2% β-mercaptoethanol was added to the samples and then boiled for 5 min prior to SDS-PAGE. Equal amounts of cellular protein for each sample (10 μg per lane) were resolved by 4-12% gradient Criterion XT Precast Bis-Tris Gels (Bio-Rad, Hercules, CA) and transferred onto PVDF membranes with a Trans-Blot Turbo System (Bio-Rad, Hercules, CA). The membranes were blocked with 5% skim milk in TBST (20 mM Tris buffer, pH 7.5, 0.5 M NaCl, 0.1% Tween 20) for 1 hr at room temperature and incubated overnight at 4° C. with the diluted primary antibody in 5% BSA in TBST. After washes with TBST, the membranes were incubated with horseradish peroxidase-conjugated goat anti-rabbit or anti-mouse secondary antibodies (Bio-Rad, Hercules, CA) diluted 1:5000 in 5% skim milk in TBST. For all primary antibodies, the same membrane was re-probed for β-actin or an antiserum reacting with the total protein. After additional washing, protein bands were detected using the SuperSignal West Pico PLUS Chemiluminescent Substrate, and visualized with a ChemiDoc MP Imaging System (Bio-Rad, Hercules, CA). Band density was quantified densitometrically with Image Lab software (Bio-Rad, Hercules, CA). Relative protein expression was normalized to ß-actin band density. Each Western blot was performed three to six times with independent protein samples (n=3−6).
A general note: Immunoblotting shows a protein as a band on a membrane.

Experiment [4] has as its system HT22 cells. Put plainly: MitoTracker Assay (mitochondrial mass). Format: cell-based, mouse. As to the method:
MitoTracker Assay. HT22 cells were seeded onto 96-well black walled plates at a density of 5,000 cells/well in DMEM supplemented with 10% FBS and 1% antibiotics. After the desired treatments, MitoTracker Orange CM−H2TMRos (Ex/Em=554/576 nm) and Hoechst 33342 (Ex/Em=360/460 nm) dyes were added to the cells and incubated under the same culture condition for 2 hr. Fluorescence was measured on a SpectraMax M5 microplate reader. Experiments were performed according to the manufacturer's instructions. Data were normalized for total protein/well. Each condition was analyzed in sixteen wells per independent experiment (n=16). Results were presented as the percentage of the controls with vehicle alone. Results were verified by live-cell imaging under a fluorescence microscope.

On to `CCCCCc1cc(O)c2c(c1)OC(C)(C)c1ccc(C)cc1-2` [CBN, 6,6,9-Trimethyl-3-pentyl-benzo[c]chromen-1-ol], for which, in experiment [1] (50 nM RSL3, 16 hr, p<0.0001), the “RSL3-induced cellular lipid peroxidation” value is given as “effectively suppressed”. The “basal cellular lipid peroxidation, compound alone” value in experiment [1] (CBN 5 μM, ferrostatin 10 μM, 16 hr) is on record as “neither CBN (5 μM) nor ferrostatin (10 μM) alone changed basal levels of lipid peroxidation”. In addition, the “capacity to scavenge total free radicals (TEAC)” value in experiment [2] was “relatively weak capacity”. In experiment [3], the “DRP1 and MFF levels, co-treatment with RSL3” value is on record as “restored DRP1 levels but not MFF levels”; the “MFF and DRP1 expression, compound alone” value is “significantly enhanced the expression of MFF but not DRP1”; the “OPA1 and MFN2 expression, co-treatment with RSL3” value is on record as “enhanced the expression of OPA1 but not MFN2”; the “PGC-1α and TFAM levels, compound alone” value is listed as “no apparent effects”. In experiment [3], the “RSL3-induced decrease of SIRT1, pAMPK/AMPK, PGC-1α, NRF1, TFAM” value was “prevented”; the “protein expression of OXPHOS complexes I, II, III and V, compound alone” value is given as “did not exert obvious effects”; the “protein expression of SIRT1, pAMPK(Thr172)/AMPK and NRF1, compound alone” value is listed as “upregulated”. In addition, the “RSL3-induced upregulation of OXPHOS complexes” value in experiment [3] (50 nM RSL3) was “inhibited”. Besides, in experiment [3] (5 μM CBN, 50 nM RSL3), the “effect on ATF4 with RSL3” value is “not significant”; the “protein levels of Nrf2, HO-1, SOD2 and GPX4 with RSL3” value is given as “at levels similar to the control cells”. Further, in experiment [3] (5 μM, 16 h), the “protein levels of Nrf2, HO-1, SOD2 and GPX4, compound alone” value was “upregulation”. Further, the “MCU expression, compound alone” value in experiment [3] (5 μM, 16 hr) is reported as “reduced basal MCU expression”. Further, in experiment [3] (16 h), the “RSL3-induced HSP60 upregulation” value is “suppressed” and the “VDAC level, compound alone” value is recorded as “upregulated”. For the same compound, the “OPA1 and MFN2 levels, compound alone” value in experiment [3] (16 hr) is reported as “upregulated”. In experiment [3] (p<0.0001), the “RSL3-induced MCU upregulation” value is recorded as “prevented this increase”; the “RSL3-induced VDAC decrease” value is reported as “prevented”; the “protein level of OXPHOS complex IV, compound alone” value was “reduced”. Further, the “increase of MitoTracker fluorescence (mitochondrial mass)” value in experiment [4] (5 μM, 16 hr, vs control group) came out at 4.9%. Besides, the “mitochondrial mass with RSL3” value in experiment [4] (RSL3-induced oxytosis/ferroptosis) is listed as “preserve the mitochondrial mass at the control level”.
